Read-outs that look alike come from different tables or passages of the source.
Tests used:
Test in all cases: biochemical
Format in all cases: binding
[1] = target: cellular kinases of SH-SY5Y cells (Homo sapiens, UniProt P24941); conditions: 2µM, SH-SY5Y cells
From the text: (§1) As KINOMEscan is an in vitro assay, and as different cell types have variable kinase expression profiles we sought to determine the kinase binding profile in our SH-SY5Y TFEB-relocalization cell model. […] Bound kinases were pulled down and analyzed by mass spectrometry to determine the in situ kinase binding profile for each compound.

[2] = test system: cellular kinases of SH-SY5Y cells
From the text: as §1

[3] = target: cellular kinases of SH-SY5Y cells (Homo sapiens, UniProt P00533); conditions: 2µM, SH-SY5Y cells, read-out: KiNativ in-cell binding, % Inhibition, EGFR, EGFR-L858R
From the text: as §1

[4] = target: T1, cellular kinases of SH-SY5Y cells (Homo sapiens, UniProt Q14164); conditions: 2µM; SH-SY5Y cells; Labeling Site Lys1; SGELVAVKVFNTTSYLRPR; read-out: KiNativ in-cell binding, % Inhibition, IKBKE/IKKe
T1 construct: endogenous in cells; host or cells: SH-SY5Y
From the text: as §1

[5] = target: T2, cellular kinases of SH-SY5Y cells (Homo sapiens, UniProt P23458); conditions: 2µM, SH-SY5Y cells
T2 construct: endogenous in cells; host or cells: SH-SY5Y
From the text: as §1

[6] = target: cellular kinases of SH-SY5Y cells (Homo sapiens, UniProt P49840); conditions: 2µM; SH-SY5Y cells; labeling site Lys2; peptide DIKPQNLLVDPDTAVLK
From the text: as §1

[7] = target: T3, cellular kinases of SH-SY5Y cells (Homo sapiens, UniProt Q9UBF8); conditions: 2µM, SH-SY5Y cells, Labeling Site ATP, read-out: KiNativ in-cell binding, % Inhibition, PI4KB
T3 construct: endogenous in cells; host or cells: SH-SY5Y
From the text: as §1

[8] = target: T4, cellular kinases of SH-SY5Y cells (Homo sapiens, UniProt Q15208); conditions: 2µM, SH-SY5Y cells, read-out: KiNativ in-cell binding, % Inhibition, STK38/NDR1
T4 construct: endogenous in cells; host or cells: SH-SY5Y
From the text: as §1

[9] = target: T5, cellular kinases of SH-SY5Y cells (Homo sapiens, UniProt Q9NRH2); conditions: 2µM, SH-SY5Y cells, read-out: KiNativ in-cell binding, % Inhibition, SNRK
T5 construct: endogenous in cells; host or cells: SH-SY5Y
From the text: as §1

[10] = target: T6, cellular kinases of SH-SY5Y cells (Homo sapiens, UniProt Q9NYL2); conditions: 2µM; SH-SY5Y cells; Labeling Site Lys1; WISQDKEVAVKK; read-out: KiNativ in-cell binding, % Inhibition, MAP3K20/ZAK
T6 construct: endogenous in cells; host or cells: SH-SY5Y
From the text: as §1

[11] = target: cellular kinases of SH-SY5Y cells (Homo sapiens, UniProt P27448); conditions: 2µM; SH-SY5Y cells; Labeling Site Lys1; EVAIKIIDKTQLNPTSLQK; read-out: KiNativ in-cell binding, % Inhibition, MARK3
From the text: as §1

[12] = target: T7, cellular kinases of SH-SY5Y cells (Homo sapiens, UniProt P45985); conditions: 2µM, SH-SY5Y cells; for inhibition at 2 µM: read-out: KiNativ in-cell binding, % Inhibition, MAP2K4
T7 sequence (P45985 1-399): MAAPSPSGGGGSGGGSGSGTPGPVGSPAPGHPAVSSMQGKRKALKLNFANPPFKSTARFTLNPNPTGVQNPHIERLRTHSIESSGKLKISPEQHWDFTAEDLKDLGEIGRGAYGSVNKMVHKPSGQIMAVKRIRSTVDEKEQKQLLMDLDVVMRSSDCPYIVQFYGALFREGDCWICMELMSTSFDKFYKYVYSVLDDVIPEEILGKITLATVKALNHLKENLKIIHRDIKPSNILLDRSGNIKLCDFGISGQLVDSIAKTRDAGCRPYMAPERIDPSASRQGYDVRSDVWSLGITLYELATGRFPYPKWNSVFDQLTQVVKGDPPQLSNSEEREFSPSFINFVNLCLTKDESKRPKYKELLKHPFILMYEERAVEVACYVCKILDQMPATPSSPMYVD
From the text: as §1

[13] = target: T8, cellular kinases of SH-SY5Y cells (Homo sapiens, UniProt Q96GX5); conditions: 2µM, SH-SY5Y cells, read-out: KiNativ in-cell binding, % Inhibition, MASTL
T8 construct: endogenous in cells; host or cells: SH-SY5Y
From the text: as §1

[14] = target: cellular kinases of SH-SY5Y cells (Homo sapiens, UniProt Q8TDX7); conditions: 2µM; SH-SY5Y cells; labeling site Lys1; peptide AACLLDGVPVALKK
From the text: as §1

Sequence of cellular kinases of SH-SY5Y cells (Homo sapiens, UniProt P00533) (P00533 25-1210): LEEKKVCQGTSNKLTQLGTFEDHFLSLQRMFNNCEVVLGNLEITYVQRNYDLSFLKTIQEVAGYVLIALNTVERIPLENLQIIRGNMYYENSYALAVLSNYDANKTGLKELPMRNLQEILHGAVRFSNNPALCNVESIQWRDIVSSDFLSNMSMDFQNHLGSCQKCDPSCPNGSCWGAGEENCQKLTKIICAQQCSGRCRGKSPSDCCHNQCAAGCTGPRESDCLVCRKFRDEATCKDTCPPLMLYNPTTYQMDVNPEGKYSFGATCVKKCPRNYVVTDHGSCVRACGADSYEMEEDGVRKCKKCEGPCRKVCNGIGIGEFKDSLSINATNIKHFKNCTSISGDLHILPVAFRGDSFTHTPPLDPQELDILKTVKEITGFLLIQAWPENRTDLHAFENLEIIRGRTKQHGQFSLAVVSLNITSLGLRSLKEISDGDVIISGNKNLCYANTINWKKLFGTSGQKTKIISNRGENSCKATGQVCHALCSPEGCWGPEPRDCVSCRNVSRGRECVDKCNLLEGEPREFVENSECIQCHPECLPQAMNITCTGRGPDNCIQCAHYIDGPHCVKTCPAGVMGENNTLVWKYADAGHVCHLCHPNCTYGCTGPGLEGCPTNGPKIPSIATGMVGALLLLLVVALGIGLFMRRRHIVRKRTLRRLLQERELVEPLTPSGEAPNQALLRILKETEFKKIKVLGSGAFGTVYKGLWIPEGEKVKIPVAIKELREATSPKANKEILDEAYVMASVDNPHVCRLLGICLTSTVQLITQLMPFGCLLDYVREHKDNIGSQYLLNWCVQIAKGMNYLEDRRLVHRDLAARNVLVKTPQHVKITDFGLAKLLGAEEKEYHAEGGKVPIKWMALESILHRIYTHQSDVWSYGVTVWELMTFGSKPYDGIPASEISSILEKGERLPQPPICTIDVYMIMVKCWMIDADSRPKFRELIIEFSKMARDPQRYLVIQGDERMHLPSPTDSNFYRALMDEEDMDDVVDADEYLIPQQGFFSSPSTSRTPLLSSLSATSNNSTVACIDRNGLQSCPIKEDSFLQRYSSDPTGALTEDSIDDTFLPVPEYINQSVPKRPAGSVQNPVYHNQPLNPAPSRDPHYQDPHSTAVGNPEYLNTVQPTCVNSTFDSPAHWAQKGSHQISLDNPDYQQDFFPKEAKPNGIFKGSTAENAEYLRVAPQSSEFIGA
T3 sequence (Q9UBF8 whole entry): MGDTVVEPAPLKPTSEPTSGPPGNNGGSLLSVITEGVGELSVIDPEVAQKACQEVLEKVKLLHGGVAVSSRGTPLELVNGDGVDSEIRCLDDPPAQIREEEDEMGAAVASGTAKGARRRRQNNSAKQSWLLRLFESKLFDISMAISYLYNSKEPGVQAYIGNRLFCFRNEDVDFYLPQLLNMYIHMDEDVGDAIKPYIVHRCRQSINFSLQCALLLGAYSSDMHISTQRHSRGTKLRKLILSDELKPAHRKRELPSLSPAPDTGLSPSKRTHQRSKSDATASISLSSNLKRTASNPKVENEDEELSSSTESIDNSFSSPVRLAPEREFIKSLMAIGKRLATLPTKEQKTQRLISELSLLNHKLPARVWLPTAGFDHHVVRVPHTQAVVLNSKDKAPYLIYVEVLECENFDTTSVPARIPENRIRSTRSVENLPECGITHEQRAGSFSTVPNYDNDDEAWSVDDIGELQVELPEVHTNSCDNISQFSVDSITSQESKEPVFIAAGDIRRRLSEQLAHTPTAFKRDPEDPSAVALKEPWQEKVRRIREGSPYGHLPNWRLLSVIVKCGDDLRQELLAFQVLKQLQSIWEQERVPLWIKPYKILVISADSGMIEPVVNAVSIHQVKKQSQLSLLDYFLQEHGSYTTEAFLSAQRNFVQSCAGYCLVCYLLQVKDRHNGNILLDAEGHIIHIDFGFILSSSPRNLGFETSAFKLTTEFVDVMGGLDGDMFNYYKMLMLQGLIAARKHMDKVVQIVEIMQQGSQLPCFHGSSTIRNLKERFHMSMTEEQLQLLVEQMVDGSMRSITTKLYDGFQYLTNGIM
T8 sequence (Q96GX5 whole entry): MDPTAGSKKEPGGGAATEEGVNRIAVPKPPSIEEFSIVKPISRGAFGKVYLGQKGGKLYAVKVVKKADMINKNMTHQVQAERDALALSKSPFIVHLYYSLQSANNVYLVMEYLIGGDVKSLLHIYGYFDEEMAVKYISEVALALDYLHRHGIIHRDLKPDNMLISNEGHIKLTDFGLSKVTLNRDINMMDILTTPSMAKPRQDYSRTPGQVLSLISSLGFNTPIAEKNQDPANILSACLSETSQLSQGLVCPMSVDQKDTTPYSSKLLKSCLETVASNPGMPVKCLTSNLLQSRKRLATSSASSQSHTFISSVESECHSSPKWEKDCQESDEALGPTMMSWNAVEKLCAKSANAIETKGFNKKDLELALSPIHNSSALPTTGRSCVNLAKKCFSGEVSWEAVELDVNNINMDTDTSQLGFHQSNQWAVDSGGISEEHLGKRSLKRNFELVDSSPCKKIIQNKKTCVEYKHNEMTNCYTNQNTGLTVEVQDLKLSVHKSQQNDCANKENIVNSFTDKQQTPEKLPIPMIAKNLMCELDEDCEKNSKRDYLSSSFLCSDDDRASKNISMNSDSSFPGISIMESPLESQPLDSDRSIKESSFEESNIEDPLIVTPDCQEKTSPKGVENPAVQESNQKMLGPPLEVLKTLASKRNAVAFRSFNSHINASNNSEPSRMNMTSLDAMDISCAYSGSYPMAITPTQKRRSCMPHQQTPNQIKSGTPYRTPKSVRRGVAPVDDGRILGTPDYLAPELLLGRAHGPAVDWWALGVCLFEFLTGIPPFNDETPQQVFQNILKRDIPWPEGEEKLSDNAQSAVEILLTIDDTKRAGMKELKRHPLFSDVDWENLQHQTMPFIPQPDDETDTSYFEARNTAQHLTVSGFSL
T5 sequence (Q9NRH2 whole entry): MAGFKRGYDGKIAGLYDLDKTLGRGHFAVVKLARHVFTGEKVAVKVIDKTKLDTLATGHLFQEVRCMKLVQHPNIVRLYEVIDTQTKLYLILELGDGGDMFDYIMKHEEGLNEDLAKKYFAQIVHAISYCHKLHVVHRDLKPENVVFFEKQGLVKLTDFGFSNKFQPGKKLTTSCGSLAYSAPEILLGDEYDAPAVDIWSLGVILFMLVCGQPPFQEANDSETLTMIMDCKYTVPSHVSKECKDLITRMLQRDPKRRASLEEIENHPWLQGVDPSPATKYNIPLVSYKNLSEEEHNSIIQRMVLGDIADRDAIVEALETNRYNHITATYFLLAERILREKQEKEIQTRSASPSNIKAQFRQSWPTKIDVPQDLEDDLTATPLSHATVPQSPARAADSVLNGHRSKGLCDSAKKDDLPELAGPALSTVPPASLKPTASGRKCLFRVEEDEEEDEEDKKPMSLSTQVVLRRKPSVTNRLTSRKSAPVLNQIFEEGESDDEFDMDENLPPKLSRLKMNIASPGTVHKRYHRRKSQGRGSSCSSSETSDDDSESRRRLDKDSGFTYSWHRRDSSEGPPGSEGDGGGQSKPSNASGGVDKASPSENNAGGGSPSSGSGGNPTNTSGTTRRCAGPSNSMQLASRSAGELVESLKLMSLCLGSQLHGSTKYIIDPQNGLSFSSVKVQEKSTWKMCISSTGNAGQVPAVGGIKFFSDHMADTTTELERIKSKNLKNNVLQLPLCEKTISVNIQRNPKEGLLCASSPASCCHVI
T4 sequence (Q15208 whole entry): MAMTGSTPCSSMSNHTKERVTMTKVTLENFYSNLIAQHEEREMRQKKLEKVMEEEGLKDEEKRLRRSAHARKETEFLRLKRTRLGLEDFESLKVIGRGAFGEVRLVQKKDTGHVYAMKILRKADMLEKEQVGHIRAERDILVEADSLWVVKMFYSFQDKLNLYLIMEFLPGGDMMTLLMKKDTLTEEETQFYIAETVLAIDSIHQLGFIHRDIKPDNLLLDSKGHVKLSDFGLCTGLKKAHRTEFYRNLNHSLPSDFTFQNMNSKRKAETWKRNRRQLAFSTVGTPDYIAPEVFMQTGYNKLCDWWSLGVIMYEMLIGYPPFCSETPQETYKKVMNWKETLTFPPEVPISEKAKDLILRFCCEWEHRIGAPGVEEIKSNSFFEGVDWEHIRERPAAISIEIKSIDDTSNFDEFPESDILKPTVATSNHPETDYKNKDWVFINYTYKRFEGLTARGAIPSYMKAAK
Sequence of cellular kinases of SH-SY5Y cells (Homo sapiens, UniProt P27448) (P27448 whole entry): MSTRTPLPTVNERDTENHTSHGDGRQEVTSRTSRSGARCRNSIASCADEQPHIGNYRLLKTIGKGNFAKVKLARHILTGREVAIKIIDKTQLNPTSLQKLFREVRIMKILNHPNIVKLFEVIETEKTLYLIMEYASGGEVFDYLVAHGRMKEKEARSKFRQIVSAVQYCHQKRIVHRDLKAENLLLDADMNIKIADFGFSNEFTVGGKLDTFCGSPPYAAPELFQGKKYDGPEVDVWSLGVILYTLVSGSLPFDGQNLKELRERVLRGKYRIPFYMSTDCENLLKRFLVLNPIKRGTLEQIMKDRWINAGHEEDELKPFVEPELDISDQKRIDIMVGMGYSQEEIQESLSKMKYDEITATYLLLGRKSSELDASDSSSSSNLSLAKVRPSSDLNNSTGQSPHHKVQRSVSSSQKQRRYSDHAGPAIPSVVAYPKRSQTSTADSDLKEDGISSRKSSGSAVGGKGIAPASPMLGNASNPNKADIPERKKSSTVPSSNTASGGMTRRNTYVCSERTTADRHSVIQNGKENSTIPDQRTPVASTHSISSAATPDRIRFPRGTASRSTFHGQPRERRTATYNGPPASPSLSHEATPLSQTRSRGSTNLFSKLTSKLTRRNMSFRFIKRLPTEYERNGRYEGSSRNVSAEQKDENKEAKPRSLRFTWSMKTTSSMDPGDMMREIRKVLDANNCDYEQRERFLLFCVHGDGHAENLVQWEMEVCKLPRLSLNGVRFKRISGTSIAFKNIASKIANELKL

Compound: Cc1cccc(-c2nc(Nc3ccc4ncsc4c3)c3ccccc3n2)n1 [NK140]
- inhibition at 2 µM ([1]; Labeling Site Lys1, LTGEVVALKK, read-out: KiNativ in-cell binding, % Inhibition, CDK2): 21.6%
- KiNativ in-cell binding, CDK2 ([1]; labeling site Lys2, peptide DLKPQNLLINTEGAIK): 6.0
- KiNativ in-cell binding, % Inhibition, CaMK2a, CaMK2b, CaMK2d, CaMK2g [2]: 16.4%
- KiNativ in-cell binding, AKT1, AKT3 [2]: -0.000814
- KiNativ in-cell binding, % Inhibition, AKT1, AKT3 ([2]; 2 µM): 34.2%
- KiNativ in-cell binding, % Inhibition, STK17A/DRAK1, STK17B/DRAK2 ([2]; 2µM, SH-SY5Y cells, Labeling Site ATP Loop, GKFAVVR): -4.6%
- KiNativ in-cell binding, % Inhibition, AURKA/AurA, AURKB/AurB, AURKC/AurC ([2]; 2µM, SH-SY5Y cells, Labeling Site ATP Loop, GKFGNVYLAR): 24.2%
- KiNativ in-cell binding, % Inhibition, CSNK1G1, CSNK1G2, CSNK1G3 ([2]; 2µM, SH-SY5Y cells, Labeling Site ATP Loop, KIGCGNFGELR): 8.1%
- KiNativ in-cell binding, % Inhibition, Wnk1, Wnk2, Wnk4 ([2]; 2µM, SH-SY5Y cells, Labeling Site Activation Loop, IGDLGLATLKR): 6.9%
- KiNativ in-cell binding, % Inhibition, MERTK/MER, TYRO3 ([2]; 2µM, SH-SY5Y cells, Labeling Site Activation Loop, KIYSGDYYR): -4.5%
- KiNativ in-cell binding, % Inhibition, KSR1, KSR2 ([2]; 2µM, SH-SY5Y cells, Labeling Site Activation Loop, SKNVFYDNGK): 5.1%
- KiNativ in-cell binding, % Inhibition, MARK3, MARK4 ([2]; 2µM, SH-SY5Y cells, Labeling Site Lys1, EVAIKIIDK): 2.7%
- KiNativ in-cell binding, % Inhibition, MARK1, MARK2 ([2]; 2µM, SH-SY5Y cells, Labeling Site Lys1, EVAVKIIDK): 1.8%
- KiNativ in-cell binding, % Inhibition, TAOK1, TAOK3 ([2]; 2µM, SH-SY5Y cells, Labeling Site Lys2, DIKAGNILLTEPGQVK): 26.0%
- KiNativ in-cell binding, % Inhibition, MAP3K2, MAP3K3 ([2]; 2µM, SH-SY5Y cells, Labeling Site Lys2, DIKGANILR): 28.5%
- KiNativ in-cell binding, % Inhibition, NEK6, NEK7 ([2]; 2µM, SH-SY5Y cells, Labeling Site Lys2, DIKPANVFITATGVVK): -7.5%
- KiNativ in-cell binding, % Inhibition, MARK2, MARK3 ([2]; 2µM, SH-SY5Y cells, Labeling Site Lys2, DLKAENLLLDADMNIK): -28.6%
- KiNativ in-cell binding, % Inhibition, Wnk1, Wnk2, Wnk3 ([2]; 2µM, SH-SY5Y cells, Labeling Site Lys2, DLKCDNIFITGPTGSVK): 6.4%
- KiNativ in-cell binding, % Inhibition, PRKCA/PKCa, PRKCB/PKCb ([2]; 2µM, SH-SY5Y cells, Labeling Site Lys2, DLKLDNVMLDSEGHIK): -2.4%
- KiNativ in-cell binding, % Inhibition, CSNK1D, CSNK1E ([2]; 2µM, SH-SY5Y cells, Labeling Site Lys2, DVKPDNFLMGLGKK): 19.5%
- KiNativ in-cell binding, % Inhibition, ROCK1, ROCK2 ([2]; 2µM, SH-SY5Y cells, Labeling Site Lys2, DVKPDNMLLDK): -44.8%
- KiNativ in-cell binding, % Inhibition, MAPKAPK2, MAPKAPK3 ([2]; 2µM, SH-SY5Y cells, Labeling Site Lys2, DVKPENLLYTSK): 16.8%
- KiNativ in-cell binding, % Inhibition, PRKCA/PKCa, PRKCG/PKCg ([2]; 2µM, SH-SY5Y cells, Labeling Site Other, NLIPMDPNGLSDPYVKLK): -18.8%
- KiNativ in-cell binding, % Inhibition, PI4KA, PI4KAP2 ([2]; 2µM, SH-SY5Y cells, Labeling Site Unassigned, SGTPMQSAAKAPYLAK): 1.2%
- KiNativ in-cell binding, IKKe, TBK1 ([2]; 2µM, SH-SY5Y cells, labeling site Lys2, peptide DIKPGNIMR): -85.5
- KiNativ in-cell binding, MYO3A, MYO3B ([2]; 2µM, SH-SY5Y cells, labeling site Lys2, peptide DVKGNNILLTTEGGVK): 0.9
- KiNativ in-cell binding, MAP2K1, MAP2K2 ([2]; 2µM, SH-SY5Y cells, labeling site Lys2, peptide DVKPSNILVNSR): -3.2
- inhibition at 2 µM ([3]; Labeling Site Activation Loop, LLGAEEKEYHAEGGKVPIK): 33.5%
- inhibition at 2 µM ([3]; Labeling Site Lys1, IPVAIKELR): 14.4%
- inhibition at 2 µM [4]: 34.5%
- inhibition at 2 µM ([5]; Labeling Site Lys1, YDPEGDNTGEQVAVKSLKPESGGNHIADLKK, read-out: KiNativ in-cell binding, % Inhibition, JAK1 domain2): 2.4%
- KiNativ in-cell binding, JAK1 domain2 ([5]; labeling site Activation Loop, peptide IGDFGLTKAIETDKEYYTVK): -56.1
- KiNativ in-cell binding, GSK3A [6]: 7.1
- inhibition at 2 µM ([7]; LLSVIVKCGDDLRQELLAFQVLK): 29.7%
- inhibition at 2 µM ([7]; VPHTQAVVLNSKDK): 32.3%
- inhibition at 2 µM ([8]; Labeling Site Lys1, DTGHVYAMKILR): -36.9%
- inhibition at 2 µM ([8]; Labeling Site Lys2, DIKPDNLLLDSK): 20.9%
- inhibition at 2 µM ([9]; Labeling Site Lys1, VAVKVIDK): 37.3%
- inhibition at 2 µM ([9]; Labeling Site Lys2, DLKPENVVFFEK): 36.3%
- inhibition at 2 µM [10]: -2%
- inhibition at 2 µM [11]: 18.5%
- inhibition at 2 µM ([12]; Labeling Site Activation Loop, LCDFGISGQLVDSIAKTR): -2.3%
- inhibition at 2 µM ([12]; Labeling Site Lys2, DIKPSNILLDR): 4%
- KiNativ in-cell binding, MAP2K4 ([12]; labeling site Lys1, peptide MVHKPSGQIMAVKR): 26.1
- inhibition at 2 µM ([13]; Labeling Site ATP Loop, GAFGKVYLGQK): 4.2%
- inhibition at 2 µM ([13]; Labeling Site Lys1, LYAVKVVK): -7.7%
- KiNativ in-cell binding, NEK7 [14]: -3.8

Reference: publication PMC9851200, “Multiparameter phenotypic screening for endogenous TFEB and TFE3 translocation identifies novel chemical series modulating lysosome function” (Autophagy, 2022)
